Assay results taken from US10889546B2, “Alkynyl pyridine prolyl hydroxylase inhibitor, and preparation method and medical use thereof” (Jiangsu Hengrui Medicine Co., Ltd., priority 2015, dated 2021).
Read-outs that look alike come from different tables or passages of the source.

Key:
[1] = test system: EPO; assay: EPO expression at the cellular level (EPO kit); format: cell-based; conditions: Hep3B human hepatoma cell, 24 h after administration
Procedure: (§1) The test of the activity of some compounds of the present invention on VEGF at the cellular level and EPO at the cellular level is shown as follows. The method is in accordance with Bioorganic & Medicinal Chemistry Letters 23 (2013) 5953-5957, and the test was carried out by using VEGF and EPO kit respectively 24 h after administration.
(§2) Hep3B Cell: Human Hepatoma Cell

[2] = target: Prolyl hydroxylase 2 (Homo sapiens (Human), UniProt Q9GZT9); assay: Prolyl hydroxylase 2 inhibition, fluorescence polarization method; format: biochemical
[3] = test system: HIF-α; assay: Western-blot test of HIF-α level in cells; format: cell-based, human; conditions: Hep3B cell, 50 μM, 250 μM, 24 hours after administration
Procedure: At the same time, Western-blot test at the cellular level was also carried out for some of the compounds of the present invention.
FIG. 1 is the results of Western-blot test of some compounds at the cellular level (Hep3B cell: human hepatoma cell; the compound concentration: 50 μM, 250 μM, 24 hours after administration)

[4] = test system: VEGF; assay: VEGF expression at the cellular level (VEGF kit); format: cell-based; conditions: Hep3B human hepatoma cell, 24 h after administration
Procedure: as §1, §2

[5] = test system: VEGF; assay: VEGF level at the animal level (VEGF kit); format: in vivo; conditions: C57Bl/6 mice, male, 8-9 weeks old; 50 μM; 24 h / 4 h after administration
Procedure: (§3) The test of the activity of some compounds of the present invention on VEGF at the animal level and EPO at the cellular level is shown as follows. The method is in accordance with Journal of Medicinal Chemistry 55 (2012) 2945-2959, and the test was carried out by using VEGF and EPO kit respectively 4 h after administration.

[6] = test system: EPO; assay: EPO level at the animal level (EPO kit); format: in vivo; conditions: C57Bl/6 mice, male, 8-9 weeks old; 50 μM; 24 h / 4 h after administration
Procedure: as §3

[7] = fluorescence polarization, read 1 h after adding the drugs, read-out: Prolyl hydroxylase 2 (IC50 nM)
[8] = Table 2 comparison, same test method, same batch, read-out: Prolyl hydroxylase 2 (IC50 nM), example compounds of the present invention

Chain of Prolyl hydroxylase 2 (Q9GZT9 whole entry): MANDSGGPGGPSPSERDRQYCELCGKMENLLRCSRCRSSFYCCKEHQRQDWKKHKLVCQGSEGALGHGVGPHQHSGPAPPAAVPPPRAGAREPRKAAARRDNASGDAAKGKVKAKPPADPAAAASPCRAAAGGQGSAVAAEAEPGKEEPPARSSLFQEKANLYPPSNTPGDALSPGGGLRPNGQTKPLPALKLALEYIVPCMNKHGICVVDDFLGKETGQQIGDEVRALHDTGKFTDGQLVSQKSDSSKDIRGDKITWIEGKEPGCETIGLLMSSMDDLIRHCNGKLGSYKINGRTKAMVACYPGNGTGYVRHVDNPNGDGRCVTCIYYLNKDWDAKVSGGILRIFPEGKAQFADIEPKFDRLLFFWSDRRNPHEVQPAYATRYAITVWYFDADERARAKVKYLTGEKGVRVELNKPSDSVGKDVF

| SMILES | IC50 [2, 7] [nM] | IC50 [2, 8] [nM] | Whether it can increase the expression of EPO in cells [1] | Whether it can increase the level of HIF-α in cells [3] | Whether it can increase the expression of VEGF in cells [4] | increased level of VEGF at the animal level (FIG. 2) [5] | increased level of EPO at the animal level (FIG. 2) [6] |
| --- | --- | --- | --- | --- | --- | --- | --- |
| Cc1ccc(OCC#Cc2cnc(C(=O)NCC(=O)O)c(O)c2)cc1 [Example 34, 2-(3-Hydroxy-5-(3-p-tolyloxypropyn-1-yl))picolinamido acetic acid] | 110 ± 22 |  | Yes | Yes | Yes |  |  |
| O=C(O)CNC(=O)c1ncc(C#CCOc2ccc(Cl)cc2)cc1O [Example 44, 2-(3-Hydroxy-5-(3-p-chlorophenoxypropyn-1-yl))picolinamido acetic acid] | 13.7 ± 1.1 | 13.7 ± 1.1 | Yes | Yes | Yes |  |  |
| Cc1cccc(C#Cc2cnc(C(=O)NCC(=O)O)c(O)c2)c1 [Example 14, 2-(3-Hydroxy-5-m-methylphenylethynyl)picolinamido acetic acid] |  |  | Yes | Yes | Yes | increased level | increased level |
| O=C(O)CNC(=O)c1ncc(C#CCNc2ccc(Cl)cc2)cc1O [Example 65] |  |  | Yes | Yes | Yes |  |  |
| O=C(O)CNC(=O)c1ncc(C#CCOc2ccc(F)cc2)cc1O [Example 47, 2-(3-Hydroxy-5-(3-p-fluorophenoxypropyn-1-yl))picolinamido acetic acid] | 187 ± 8.3 |  | Yes |  | Yes | increased level | increased level |
| Cc1nc(C(=O)NCC(=O)O)c(O)c2ccc(Oc3ccccc3)cc12 [FG-4592, reference compound] |  |  | Yes |  | Yes | increased level | increased level |
| Cc1cccc(OCC#Cc2cnc(C(=O)NCC(=O)O)c(O)c2)c1C [Example 38, 2-(3-Hydroxy-5-(3-(2,3-dimethylphenyl)oxypropyn-1-yl))picolinamido acetic acid] |  |  | Yes | Yes | Yes |  |  |
| O=C(O)CNC(=O)c1ncc(C#Cc2ccc(F)cc2)cc1O [Example 15, 2-(3-Hydroxy-5-p-fluorophenylethynyl)picolinamido acetic acid] |  |  | Yes | Yes | Yes | increased level | increased level |
| CCc1ccc(OCC#Cc2cnc(C(=O)NCC(=O)O)c(O)c2)cc1 [Example 36] | 378 ± 33.3 |  | Yes |  | Yes |  |  |

The next lines start with results.

| IC50 [2, 7] [nM] | IC50 [2, 8] [nM] | SMILES | Whether it can increase the expression of EPO in cells [1] | Whether it can increase the level of HIF-α in cells [3] | Whether it can increase the expression of VEGF in cells [4] | increased level of VEGF at the animal level (FIG. 2) [5] | increased level of EPO at the animal level (FIG. 2) [6] |
| --- | --- | --- | --- | --- | --- | --- | --- |
| 169.5 ± 0.5 | 169.5 ± 0.5 | O=C(O)CNC(=O)c1ncc(C#CCOc2ccccc2)cc1O [Example 33, 2-(3-Hydroxy-5-(3-phenoxypropyn-1-yl))picolinamido acetic acid] | Yes |  | Yes |  |  |
| 175 ± 2.3 |  | O=C(O)CNC(=O)c1ncc(C#CCOc2ccccc2Cl)cc1O [Example 45, 2-(3-Hydroxy-5-(3-o-chlorophenoxypropyn-1-yl))picolinamido acetic acid] | Yes |  | Yes |  |  |
| 326.5 ± 0.8 |  | O=C(O)CNC(=O)c1ncc(C#CCNc2ccccc2)cc1O [Example 64, 2-(3-Hydroxy-5-(3-anilinopropyn-1-yl))picolinamido acetic acid] | Yes |  | Yes |  |  |
| 102 ± 5 |  | O=C(O)CNC(=O)c1ncc(C#CCOc2cccc(Cl)c2)cc1O [Example 46, 2-(3-Hydroxy-5-(3-m-chlorophenoxypropyn-1-yl))picolinamido acetic acid] | Yes |  | Yes |  |  |
